From patent publication US7968081B2, “Peptide for diagnosing, preventing and treating atherosclerosis and uses thereof” (Kyungpook National University Industry—Academic Cooperation …, priority 2007, dated 2011)
Ends that are not written are not given here. * marks the point of attachment. FITC = O=C1OC2(c3ccc(O)cc3Oc3cc(O)ccc32)c2ccc(NC(=S)*)cc21

How the values were obtained:
[1] = system: aortic atherosclerotic plaques; assay: In vivo atherosclerotic targeting of selected phage clones (phage titer recovered from aorta); parameters: species or system mice; conditions: tested as phage clone; SEQ ID NO: 1 versus SEQ ID NO: 2
Method: (§1) C57BL/6 mice (Ldlr−/−) into which deficiency of a low-density lipoprotein (LDL) receptor was introduced by a genetic engineering technique were fed daily for 10 weeks with 3 g of high-cholesterol diet, thereby inducing atherosclerosis in animals.
Thereafter, aorta were removed from each mouse and aortic tissues were ground to collect cells. The cells were treated with 100 μl of DMEM containing 1% NP-40 at 4° C. for 10 min, and 900 μl of BL21 E. coli culture as a host was then added to recover cell-bound phages. The recover phages were subjected to titer determination by a conventional method known in the art.

[2] = system: IL-4-induced phosphorylation of STAT6; assay: IL-4-induced phosphorylation of STAT6 in THP1 monocytes differentiated into macrophages (Western blot); type: cell-based
Method: (§2) THP1 monocytes were treated and activated with 100 ng/mL of phorbol myristate acetate (PMA) for 3 days to thereby induce differentiation into macrophages. The culture medium was replaced with a serum-free fresh medium, and the cells were cultured for 18 hours and treated with 0.67 nM of IL-4 alone for 10 min. Meanwhile, the peptide of the present invention alone or in conjunction with IL-4 was treated at concentrations of 0.67 nM (1×, one-fold concentration that of IL-4), 6.7 nM (10×, 10-fold concentration that of IL-4) and 67 nM (100×, 100-fold concentration that of IL-4) on cells which are under the same culture phase. After the reaction was complete, cells were disrupted according to a conventional method known in the art and cell lysates were subjected to electrophoresis and Western blot analysis using antibodies. As assay antibodies, STAT6 antibody and phospho-STAT6 (P-STAT6) antibody (Cell Signaling, USA), AKT antibody and phosphor-Thr308-AKT antibody or phosphor-Ser473 AKT antibody (Santa Cruz, USA) and β-actin antibody were used.

[3] = system: IL-4-induced phosphorylation of AKT; assay: IL-4-induced Thr308 and Ser473 phosphorylation of AKT in THP1 monocytes differentiated into macrophages (Western blot); type: cell-based
Method: as §2

IL-4R [4] = biological target: T1, IL-4R (Homo sapiens, UniProt P24394); assay: Bindability of peptide to IL-4R-expressing CHO-K1 cells (fluorescence microscopy); type: binding; conditions: 10 μM peptide, room temperature, 1 hour
T1 sequence (P24394 26-825): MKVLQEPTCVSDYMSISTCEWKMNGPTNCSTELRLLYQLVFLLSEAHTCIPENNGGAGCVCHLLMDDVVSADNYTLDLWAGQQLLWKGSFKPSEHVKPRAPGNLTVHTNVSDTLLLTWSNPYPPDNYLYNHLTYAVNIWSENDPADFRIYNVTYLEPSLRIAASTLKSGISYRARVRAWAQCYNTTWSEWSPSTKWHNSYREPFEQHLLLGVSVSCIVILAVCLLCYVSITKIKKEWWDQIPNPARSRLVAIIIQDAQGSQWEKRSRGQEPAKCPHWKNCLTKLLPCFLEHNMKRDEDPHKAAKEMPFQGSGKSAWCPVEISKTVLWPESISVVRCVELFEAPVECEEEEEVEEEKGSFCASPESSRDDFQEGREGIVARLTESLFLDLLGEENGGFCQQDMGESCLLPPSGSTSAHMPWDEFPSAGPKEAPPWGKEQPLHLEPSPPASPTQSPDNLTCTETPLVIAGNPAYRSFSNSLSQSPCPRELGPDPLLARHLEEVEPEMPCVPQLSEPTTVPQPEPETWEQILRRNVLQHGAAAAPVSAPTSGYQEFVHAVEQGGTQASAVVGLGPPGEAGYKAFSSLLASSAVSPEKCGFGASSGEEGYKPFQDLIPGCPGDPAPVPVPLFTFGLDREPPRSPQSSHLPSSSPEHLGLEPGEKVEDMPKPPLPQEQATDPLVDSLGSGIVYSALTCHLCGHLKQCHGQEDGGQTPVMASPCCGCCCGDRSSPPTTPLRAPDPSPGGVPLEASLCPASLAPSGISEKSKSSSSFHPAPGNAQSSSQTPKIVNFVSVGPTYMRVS
Excerpt: In order to further confirm roles of IL-4R as the receptor for the peptide of the present invention, a plasmid capable of expressing IL-4R (Cat. #TC119877, Origene, USA) was introduced into IL-4R-deficient CHO-K1 cells according to a conventional method known in the art, followed by expression of IL-4R, and binding of IL-4R with the peptide of the present invention was examined.
The cells were stained with antibodies (1:200 dilution) directed against. IL-4R and cell nuclei were stained with DAPI, followed by fluorescence microscopic examination. As a result, a large amount of IL-4R (red fluorescence) was present on the cell surface (FIG. 6B). Next, CHO-K1 and CHO-K1/IL-4R cells were reacted with 10 μM of the FITC-C-RKRLDRNC peptide at room temperature for 1 hour.

IL-4R [5] = biological target: T1, IL-4R; assay: Bindability of peptide to HT-1376 cells with inhibited expression of IL-4R (siRNA); type: binding; parameters: HT-1376 cells that essentially show constitutive expression of IL-4R; endogenous in cells; host or cells: HT-1376; conditions: same conditions as in FIG. 6 (10 μM, room temperature, 1 hour)
Method: Silencing RNA for IL-4R (Cat. #16708A, Ambion, USA) was introduced into HT-1376 cells that essentially show constitutive expression of IL-4R, according to a conventional method known in the art, and treated for 24 hours to thereby result in substantially no expression of IL-4R, followed by evaluation of peptide binding. More specifically, 10 nM of IL-4R silencing RNA synthesized by the manufacturer was mixed with a siPORT™ NeoFX™ lipid transfection agent (Ambion, USA), and the mixture was treated for 24 hours on HT-1376 cells grown in a 4-well chamber slide, such that IL-4R silencing RNA is incorporated into the cells. Thereafter, the culture medium was replaced with one containing 10% bovine serum and the cells were recovered for 24 hours. After staining of cells with IL-4R antibodies and nuclear DAPI staining under the same conditions as in FIG. 6, a cellular expression level of IL-4R was examined. After IL-4R staining, the FITC-CRKRLDRNC peptide was reacted with the cells under the same conditions as in FIG. 6, and a binding degree of the peptide was measured.

[6] = system: atherosclerotic plaque tissues; assay: In vivo atherosclerotic targeting of fluorescent dye-conjugated peptide (fluorescence microscopy of frozen sections); conditions: atherosclerosis-induced mice; final blood concentration 50 μM via left ventricle, circulation 15 min
Excerpt: as §1, with “animals. The high-cholesterol diet was a special animal feed containing 1.25% cholesterol, 15% fat and 0.5% cholate (Oriental Yeast Co., Japan).” for “animals.”
Here, the peptide was synthesized by tagging an N-terminus of the peptide with FITC (fluorescein isothiocyanate) as a green fluorescent dye. The synthesized FITC-CRKRLDRNC peptide and a control peptide (FITC-NSSVDK) at final blood concentrations of 50 μM were injected into the atherosclerosis-induced mice via the left ventricle of animals, followed by circulation for 15 min. Thereafter, the aortae were removed from each mouse, and frozen sections were prepared, followed by Oil Red O (fat marker, Sigma-Aldrich, USA) staining or vWF (vascular endothelial cell marker, 1:5000 dilution, Abcam, USA) and Mac-3 (macrophage marker, 1:50 dilution, BD, USA) staining (Matter et al., Circulation Research, 95:1225-1233, 2004). In order to stain nuclei in tissues, a mounting medium containing a nuclear staining dye, 4′,6-diamidino-2-phenylindole (DAPI) (manufactured by Molecular Probe, USA) was treated on a slide, according to a conventional method known in the art, followed by fluorescence microscopic examination.

[7] = system: atherosclerotic plaque tissues; assay: In vivo atherosclerotic targeting of radioisotope-conjugated peptide (autoradiography of aortae); parameters: species or system mice; conditions: tail vein, circulation 15 min
Method: In order to evaluate in vivo targetability of an inventive peptide through a higher sensitivity method, the peptide was synthesized and then an N-terminus of the peptide was tagged with a radioisotope (^111In). The ^111In-tagged peptide of the present invention at a dose of 160 μCi was injected via the tail vein into the blood of atherosclerotic mice and normal mice, followed by circulation for 15 min. Thereafter, aortae were removed from each mouse and autoradiography with X-ray film exposure was carried out. As a control group, the ^123I-tagged peptide (^123I-CLEVSRKNC) was injected at a dose of 104 μCi.

[8] = peptide at 100-fold concentration

## CRKRLDRNC (peptide 1, completely synthesized) [peptide of the present invention]
[1]
  atherosclerotic targeting, comparison of the two selected phage clones: more intense atherosclerotic targeting
[2]; peptide at 100-fold concentration that of IL-4 (67 nM) with 0.67 nM IL-4
  effect on IL-4-induced phosphorylation of STAT6: significant inhibitory effects
[2]; peptide with IL-4
  amount of total STAT6 proteins: not affected
[3]; [8]
  antagonistic effect on Ser473 phosphorylation of AKT relative to Thr308: greater antagonistic effects
  level of Ser473 phosphorylation of AKT versus control group not treated with IL-4: inhibited to a lower level than that of the control group
[3]; peptide at 100-fold concentration (67 nM) with 0.67 nM IL-4
  effect on IL-4-induced phosphorylation of AKT (Thr308 and Ser473): inhibited

## FITC-NSSVDK ({FITC}-NSSVDK) [FITC-labeled control peptide, reference compound]
IL-4R [4]
  binding to CHO-K1/IL-4R cells (IL-4R-expressing): no binding
IL-4R [5]
  binding to HT-1376 cells (constitutive expression of IL-4R): almost no binding
[6]
  peptide found in aortic atherosclerotic plaque tissues (green fluorescence): substantially no control peptide was found

## ^123I-CLEVSRKNC (not fully specified (N-terminus); cysteine pairing not given here; also: 123I label, attachment not given here) [123I-tagged control peptide for autoradiography]
[7]; aortae of atherosclerotic mice, 160 μCi (111In peptide) or 104 μCi (123I control)
  radioactivity resulting from aortic targeting of the peptide: substantially no detection of radioactivity
[7]; aortae of normal mice, 104 μCi (123I control)
  radioactivity resulting from aortic targeting of the peptide: substantially no detection of radioactivity

B1: IL-4: cytokine used as stimulus of STAT6 and AKT phosphorylation (protein)
chain: HKCDITLQEIIKTLNSLTEQKTLCTELTVTDIFAASKNTTEKETFCRAATVLRQFYSHHEKDTRCLGATAQQFHRHKQLIRFLKRLDRNLWGLAGLNSCPVKEANQSTLENFLERLKTIMREKYSKCSS
[2]; 0.67 nM IL-4 alone, 10 min
  phosphorylation of STAT6 induced by IL-4: significant increase
[3]; 0.67 nM IL-4, 10 min
  Thr308 and Ser473 phosphorylation of AKT induced by IL-4: slightly increased
